Experimental data as given in patent US20050107289A1, “Anti-microbial peptides and compositions” (priority 2001, published 2005).
Non-standard residues stand in square brackets, D forms with d. Residues, ends and D or L forms follow the SMILES beside them.

How the values were obtained:
[1] = test system: vancomycin resistant E. faecium (VREF)(ATCC 51575); experiment: Mouse peritonitis model, VREF protection; assay type: in vivo, mice; parameters: PD50 VREF: unit not given here; settings: for PD50 VREF: Table 12, male Balb-C mice, IP infection, IP peptide; for In Vivo VREF PD50: Table 13; for protection of mice from VREF infection: single bolus IP dose of appropriate amount, 45-60 min after infection
Procedure: Vancomycin resistant Enterococcus faecium (VREF) bacteria (ATCC 51575) were grown at 37° C. in 60 mL of Brain Heart Infusion medium (BHI, Difco Laboratories) with agitation for 16 hours to a stationary phase. Cells were collected by centrifugation, washed twice with saline solution and resuspended in 6 mL of saline to a theoretical O.D.650 of 9-10 (determined by taking OD.650 of 10-20 fold diluted samples and correlating it to the original concentration). This suspension was diluted 15 times in a sterilized 5% mucin (Difco) in saline to a concentration of 5-7×10^8 cfu/ml (actual inoculum size was verified by colony counts on agar plates).
Peptides of the invention were tested in mice to ascertain whether they would protect the mice against bacterial infection using procedures similar to those described in N. Frimodt-Moller et al., The Mouse Peritonitis/Sepsis Model, in Zak et al. (eds.) HANDBOOK OF ANIMAL MODELS OF INFECTION 127-37 (Academic Press 1999).
Male Balb-C mice (6 weeks old, approximately 20 g) were used in the study. Staphylococcus aureus MRSA bacteria (ATCC 33591) were grown at 37° C. with agitation for 12 hours to a stationary phase. Cells were collected by centrifugation, washed twice with saline and resuspended to an O.D.650 of 1.4. This suspension was diluted ten times with saline and resuspended to a concentration of 3-5×10^7 cfu/ml. For each peptide five groups of eight mice per group were infected I.P. with 0.5 ml of the above Staphylococcus aureus MRSA preparation (lethal dose). Forty-five minutes to an hour after infection, each group was treated with a different dose of peptide and a control group received vehicle only. Mice were monitored for fourteen days; death was defined as the end point. Median protecting doses (PD50) were calculated following the Reed and Muench method. […] For IV and SQ models peptide was administered immediately after IP infection.

in vivo = settings: for bioavailability / Vd / clearance / half-life: Balb/C, mouse, plasma; for bioavailability: intraperitoneal, 100 mg/kg; for Vd / clearance / half-life: iv; for Kel elimination rate constant: Mouse, IV injection
Procedure: IV injection: Solution of peptide in 9% sucrose (1 mg/mL) was injected IV into the tail vein of Balb/C mice at a dose of 3.6 mg/kg. Then the blood was collected immediately from one group of mice (3 mice per group) by bleeding the tail, separately from each mouse (50-100 uL per mouse). Further collections of blood were done from other groups of mice at times 20, 40, 70, 90, 120, 180, and 260 min after injection. Plasma from each blood sample was separated immediately after collection by spinning down red blood cells over a period of 5 min at 4000 rev./min. The plasma was then diluted with an equal volume of saline and refrigerated until analysis.
IP injection: Solutions of peptide in 9% sucrose (8.1 mg/mL) were injected EP into Balb/C mice at a dose of 100 mg/kg. Blood was collected immediately from one group of mice (3 mice per group) by bleeding the tail, separately from each mouse (50-100 uL per mouse). Further collections of blood were done from other groups of mice at times 0.5, 1, 2, 4, 6, 10, 15 h after injection. Plasma from each blood sample was separated immediately after collection by spinning down red blood cells over a period of 5 min at 4000 rev./min. Plasma was then diluted with equal volume of saline and refrigerated until analysis.
Detection of cyclo[RRKWLWW]-HCl in plasma by HPLC: Diluted with saline plasma (50-100 uL) was added to an eluent A (0.1% HCl in 99% H2O/1% ACN (v/v)) (150-300 uL), vortexed, and partial precipitation was removed by centrifugation. The clear solution was injected into an HPLC and the peptide was detected at 280 nm, in the 8-10 min interval, using a gradient of eluent A (0.1% HCl in 99% H2O/1% ACN (v/v)) and eluent B (0.07% HCl in 10% H2O/90% ACN (v/v)) using a flow rate of 1.5 ml/min. The following gradient was used: 30 to 30% B (5 min), followed by 30 to 37% B (5 min), followed by 37 to 40% B (12.5 min).
IV injection: Solution of peptide in 9% sucrose (2 mg/mL) was injected IV into the tail vein of Balb/C mice at a dose of 5 mg/kg. Blood was then collected immediately from one group of mice (3 mice per group) by bleeding the tail, separately from each mouse (50-100 uL per mouse). Further collections of blood were done from other groups of mice at times 30, 60, 120, 230, and 300 min after injection. Plasma from each blood sample was separated immediately after collection by spinning down red blood cells over a period of 5 min at 4000 rev./min. Plasma was then diluted with an equal volume of saline and refrigerated until analysis.
IP injection: Solution of peptide in 9% sucrose (9.8 mg/mL) was injected IP into Balb/C mice at a dose of 100 mg/kg. Blood was then collected immediately from one group of mice (3 mice per group) by bleeding the tail, separately from each mouse (50-100 uL per mouse). Further collections of blood were done from other groups of mice at times 0.5, 1, 2, 4, 6, 10 h after injection. Plasma from each blood sample was separated immediately after collection by spinning down red blood cells over a period of 5 min at 4000 rev./min. Plasma was then diluted with an equal volume of saline and refrigerated until analysis.
Detection of c(KSKWLWW) HC in plasma by HPLC: Samples were diluted with saline plasma (50-100 uL), added to an equal volume of eluent A (0.1% TFA in 96.5% H2O/0.9% ACN/2.4% MeOH (v/v)), vortexed, and partial precipitation was removed by centrifugation. The clear solution was injected into HPLC and the peptide was detected at 280 nm, in the 18-20 min interval, using a gradient of eluent A (0.1% TFA in 96.5% H2O/0.9% ACN/2.4% MeOH (v/v)) and eluent B (0.05% TFA in 8% H2O/72% ACN/20% MeOH (v/v)) using a flow rate of 1.5 ml/min. The following gradient was used: 0 to 0% B (5 min), followed by 0 to 100% B (25 min).

SMILES	PD50 E. faecium VREF infection [1] [mg/kg]	PD50 VREF [1]	In Vivo VREF PD50 [1] [mg/kg]	protection of mice from VREF infection [1]	bioavailability (in vivo) [%]	Vd (in vivo) [L/kg]	clearance (in vivo) [mL/min]	half-life (in vivo) [h]	Kel elimination rate constant (in vivo) [h⁻¹]
CC(C)C[C@H]1NC(=O)[C@H](Cc2c[nH]c3ccccc23)NC(=O)[C@@H](CCCCN)NC(=O)[C@H](CCCNC(=N)N)NC(=O)[C@@H](CCCNC(=N)N)NC(=O)[C@H](Cc2c[nH]c3ccccc23)NC(=O)[C@@H](CC(C)C)NC(=O)[C@H](Cc2c[nH]c3ccccc23)NC1=O [SEQ ID NO:18, cyclo-(D-Arg-Arg-D-Lys-Trp-D-Leu-Trp-D-Leu-Trp)] (cyclo([dR]R[dK]W[dL]W[dL]W))	7	7	7	completely protect	9	0.58	0.16	1.2	0.6
CC(C)C[C@H]1NC(=O)[C@H](Cc2c[nH]c3ccccc23)NC(=O)[C@@H](CCCCN)NC(=O)[C@H](CO)NC(=O)[C@@H](CCCCN)NC(=O)[C@H](Cc2c[nH]c3ccccc23)NC(=O)[C@@H](CC(C)C)NC(=O)[C@H](Cc2c[nH]c3ccccc23)NC1=O [SEQ ID NO:12, D-Lys-Ser-D-Lys-Trp-D-Leu-Trp-D-Leu-Trp] (cyclo([dK]S[dK]W[dL]W[dL]W))	5	5	5	completely protect	32	0.67	0.3	0.83	0.84
